Source: the supplement of paper PMC10307832

Tests used:
Assay in all cases: relative viability (nuclei count vs DMSO), 5 days (fraction); higher = more cells survive
NCI-H1915 = tested on: NCI-H1915
In short: (§1)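 The day after seeding in 1536-well plates, lung cancer cell lines were treated by pin tool with a single drug, or with a fixed anchor-drug dose together with five library-drug doses (not always all listed) in √10 steps. After 5 days, a combined fix-and-stain solution (final 0.05% Triton X-100, 1% formaldehyde, 1 ug/ml Hoechst) was added. Nuclei counted on 4× images gave relative viability as treated counts over vehicle counts, reported as the median of duplicate plates.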

NCI-H727 = tested on: NCI-H727
In short: as §1

NCI-H1755 = tested on: NCI-H1755
In short: as §1

NCI-H522 = tested on: NCI-H522
In short: as §1

NCI-H1792 = tested on: NCI-H1792
In short: as §1

NCI-H520 = tested on: NCI-H520
In short: as §1

NCI-H460 = tested on: NCI-H460
In short: as §1

NCI-H322M = tested on: NCI-H322M
In short: as §1

PC-14 = tested on: PC-14
In short: as §1

NCI-H1651 = tested on: NCI-H1651
In short: as §1

LCLC-103H = tested on: LCLC-103H
In short: as §1

NCI-H1563 = tested on: NCI-H1563
In short: as §1

NCI-H2347 = tested on: NCI-H2347
In short: as §1

NCI-H441 = tested on: NCI-H441
In short: as §1

NCI-H1355 = tested on: NCI-H1355
In short: as §1

SW 900 = tested on: SW 900
In short: as §1

LXF-289 = tested on: LXF-289
In short: as §1

SK-MES-1 = tested on: SK-MES-1
In short: as §1

NCI-H661 = tested on: NCI-H661
In short: as §1

RERF-LC-KJ = tested on: RERF-LC-KJ
In short: as §1

NCI-H596 = tested on: NCI-H596
In short: as §1

NCI-H3122 = tested on: NCI-H3122
In short: as §1

CCN(CC)CCCCNc1ncc2cc(-c3cc(OC)cc(OC)c3)c(NC(=O)NC(C)(C)C)nc2n1 + N=C(N)NC(=N)NCCc1ccccc1 [Phenformin] (partner 250 µM)
relative viability (NCI-H1915; first compound 0.01 µM): 0.376 | relative viability (NCI-H1915; first compound 0.03162 µM): 0.377 | relative viability (NCI-H1915; first compound 0.1 µM): 0.365 | relative viability (NCI-H1915; first compound 0.3162 µM): 0.373 | relative viability (NCI-H1915; first compound 1 µM): 0.337 | relative viability (NCI-H727; first compound 0.01 µM): 0.509 | relative viability (NCI-H727; first compound 0.03162 µM): 0.49 | relative viability (NCI-H727; first compound 0.1 µM): 0.547 | relative viability (NCI-H727; first compound 0.3162 µM): 0.728 | relative viability (NCI-H727; first compound 1 µM): 0.632 | relative viability (NCI-H1755; first compound 0.01 µM): 0.634 | relative viability (NCI-H1755; first compound 0.03162 µM): 0.649 | relative viability (NCI-H1755; first compound 0.1 µM): 0.677 | relative viability (NCI-H1755; first compound 0.3162 µM): 0.675 | relative viability (NCI-H1755; first compound 1 µM): 0.585 | relative viability (NCI-H522; first compound 0.01 µM): 0.726 | relative viability (NCI-H522; first compound 0.03162 µM): 0.768 | relative viability (NCI-H522; first compound 0.1 µM): 0.582 | relative viability (NCI-H522; first compound 0.3162 µM): 0.688 | relative viability (NCI-H522; first compound 1 µM): 0.633 | relative viability (NCI-H1792; first compound 0.01 µM): 0.363 | relative viability (NCI-H1792; first compound 0.03162 µM): 0.43 | relative viability (NCI-H1792; first compound 0.1 µM): 0.312 | relative viability (NCI-H1792; first compound 0.3162 µM): 0.232 | relative viability (NCI-H1792; first compound 1 µM): 0.168 | relative viability (NCI-H520; first compound 0.01 µM): 0.453 | relative viability (NCI-H520; first compound 0.03162 µM): 0.519 | relative viability (NCI-H520; first compound 0.1 µM): 0.623 | relative viability (NCI-H520; first compound 0.3162 µM): 0.335 | relative viability (NCI-H520; first compound 1 µM): 0.191 | relative viability (NCI-H460; first compound 0.01 µM): 0.536 | relative viability (NCI-H460; first compound 0.03162 µM): 0.567 | relative viability (NCI-H460; first compound 0.1 µM): 0.53 | relative viability (NCI-H460; first compound 0.3162 µM): 0.68 | relative viability (NCI-H460; first compound 1 µM): 0.329 | relative viability (NCI-H322M; first compound 0.01 µM): 0.77 | relative viability (NCI-H322M; first compound 0.03162 µM): 0.779 | relative viability (NCI-H322M; first compound 0.1 µM): 0.791 | relative viability (NCI-H322M; first compound 0.3162 µM): 0.784 | relative viability (NCI-H322M; first compound 1 µM): 0.668 | relative viability (PC-14; first compound 0.01 µM): 0.439 | relative viability (PC-14; first compound 0.03162 µM): 0.426 | relative viability (PC-14; first compound 0.1 µM): 0.661 | relative viability (PC-14; first compound 0.3162 µM): 0.87 | relative viability (PC-14; first compound 1 µM): 0.387 | relative viability (NCI-H1651; first compound 0.01 µM): 0.305 | relative viability (NCI-H1651; first compound 0.03162 µM): 0.383 | relative viability (NCI-H1651; first compound 0.1 µM): 0.347 | relative viability (NCI-H1651; first compound 0.3162 µM): 0.316 | relative viability (NCI-H1651; first compound 1 µM): 0.257 | relative viability (LCLC-103H; first compound 0.01 µM): 0.34 | relative viability (LCLC-103H; first compound 0.03162 µM): 0.335 | relative viability (LCLC-103H; first compound 0.1 µM): 0.37 | relative viability (LCLC-103H; first compound 0.3162 µM): 0.357 | relative viability (LCLC-103H; first compound 1 µM): 0.293 | relative viability (NCI-H1563; first compound 0.01 µM): 0.662 | relative viability (NCI-H1563; first compound 0.03162 µM): 0.66 | relative viability (NCI-H1563; first compound 0.1 µM): 0.689 | relative viability (NCI-H1563; first compound 0.3162 µM): 0.582 | relative viability (NCI-H1563; first compound 1 µM): 0.549 | relative viability (NCI-H2347; first compound 0.01 µM): 0.381 | relative viability (NCI-H2347; first compound 0.03162 µM): 0.24 | relative viability (NCI-H2347; first compound 0.1 µM): 0.278 | relative viability (NCI-H2347; first compound 0.3162 µM): 0.505 | relative viability (NCI-H2347; first compound 1 µM): 0.379 | relative viability (NCI-H441; first compound 0.01 µM): 0.826 | relative viability (NCI-H441; first compound 0.03162 µM): 0.87 | relative viability (NCI-H441; first compound 0.1 µM): 1.02 | relative viability (NCI-H441; first compound 0.3162 µM): 0.835 | relative viability (NCI-H441; first compound 1 µM): 0.933 | relative viability (NCI-H1355; first compound 0.01 µM): 0.446 | relative viability (NCI-H1355; first compound 0.03162 µM): 0.443 | relative viability (NCI-H1355; first compound 0.1 µM): 0.468 | relative viability (NCI-H1355; first compound 0.3162 µM): 0.501 | relative viability (NCI-H1355; first compound 1 µM): 0.413 | relative viability (SW 900; first compound 0.01 µM): 0.529 | relative viability (SW 900; first compound 0.03162 µM): 0.678 | relative viability (SW 900; first compound 0.3162 µM): 0.48 | relative viability (SW 900; first compound 1 µM): 0.364 | relative viability (LXF-289; first compound 0.01 µM): 0.506 | relative viability (LXF-289; first compound 0.03162 µM): 0.542 | relative viability (LXF-289; first compound 0.1 µM): 0.547 | relative viability (LXF-289; first compound 0.3162 µM): 0.53 | relative viability (LXF-289; first compound 1 µM): 0.424 | relative viability (SK-MES-1; first compound 0.01 µM): 0.706 | relative viability (SK-MES-1; first compound 0.03162 µM): 0.673 | relative viability (SK-MES-1; first compound 0.1 µM): 0.637 | relative viability (SK-MES-1; first compound 0.3162 µM): 0.641 | relative viability (SK-MES-1; first compound 1 µM): 0.483 | relative viability (NCI-H661; first compound 0.01 µM): 0.289 | relative viability (NCI-H661; first compound 0.03162 µM): 0.297 | relative viability (NCI-H661; first compound 0.1 µM): 0.27 | relative viability (NCI-H661; first compound 0.3162 µM): 0.291 | relative viability (NCI-H661; first compound 1 µM): 0.278 | relative viability (RERF-LC-KJ; first compound 0.01 µM): 0.389 | relative viability (RERF-LC-KJ; first compound 0.03162 µM): 0.463 | relative viability (RERF-LC-KJ; first compound 0.1 µM): 0.469 | relative viability (RERF-LC-KJ; first compound 0.3162 µM): 0.471 | relative viability (RERF-LC-KJ; first compound 1 µM): 0.469 | relative viability (NCI-H596; first compound 0.01 µM): 0.66 | relative viability (NCI-H596; first compound 0.03162 µM): 0.727 | relative viability (NCI-H596; first compound 0.1 µM): 0.899 | relative viability (NCI-H596; first compound 0.3162 µM): 0.832 | relative viability (NCI-H596; first compound 1 µM): 0.621 | relative viability (NCI-H3122; first compound 0.01 µM): 0.39 | relative viability (NCI-H3122; first compound 0.03162 µM): 0.362 | relative viability (NCI-H3122; first compound 0.1 µM): 0.633 | relative viability (NCI-H3122; first compound 0.3162 µM): 0.367 | relative viability (NCI-H3122; first compound 1 µM): 0.321
